Patent US20110207697A1, “XANTHOHUMOL COMPOSITIONS AND METHODS FOR TREATING SKIN DISEASES OR DISORDERS” (Betal, LLC, priority 2008, published 2011)
≈ marks a conversion by molar mass, not a printed value. Like-named read-outs stand apart in the source and are kept apart here.

Experiments:
S. aureus (ATCC 6538P) = experiment: Antimicrobial susceptibility, broth dilution (MIC/MBC); type: cell-based, Staphylococcus aureus
Procedure: (§1) The antibacterial effects of seven hops components against five different strains of bacteria involved in primary or secondary skin and soft tissue infections was evaluated, with broth dilution methods. […] Antimicrobial susceptibility testing was performed using a broth dilution method. Gentamicin or ampicillin was used as a control to verify the methodology. A stock solution (20 mg/ml) of the test substance (or vehicle control) was prepared in dimethyl sulfoxide. Serial dilution was done in microwell plates. Reinforced Clostridial Medium was used for P. acnes (ATCC 6919). Three hundreds […] of the test substance was added to the test tube containing P. acnes (10^5 CFU/ml) in 2.7 ml of cultures grown under anaerobic conditions. Mueller-Hinston Broth suitable for culturing S. epidermidis (ATCC 12228), K. rhizophila (formerly M. luteus) (ATCC 9341), and S. aureus (ATCC […]), and Brain Heart Infusion Broth suitable for culturing S. pyogenes (ATCC 14289) were used. A total of […] of the test substance was added to the test tube containing the other microorganisms (10^5CFU/ml) in 0.9 ml of cultures grown under controlled conditions. […] Samples from those tubes that scored positive was plated onto an agar plate and incubated under controlled conditions.

[1] = FRAP ferric reducing antioxidative power; conditions: FIG. 2 radar chart
Procedure: [table] […] The SOAC scores are not included in this figure; ORAC values used are the sum of lipophilic and hydrophilic results. For each assay category, scaling was made logarithmic so that the plot on the chart resembles the associated rating. […] The larger the spatial area, the higher the overall antioxidative capacity. […] Both hydrophilic and lipophilic oxygen radical absorbance capacity (ORAC) assays were carried out at Brunswick Laboratory (Wareham, Mass.) based on the modified ORACfl method reported by Ou et al. (2001 J. Agric. Food Chem. 49: 4619-4626, 2002 J. Agr. Food Chem. 50: 3122-3128). Trolox, a water-soluble vitamin E analog, was used as the calibration standard. The data are expressed as mmole of Trolox equivalents per gram (mmol TE/g). The acceptable precision of the ORAC assay is a 15% relative standard deviation. […] Hydroxyl radical ORAC (HOR-AC) is expressed as mmole caffeic acid equivalent per gram (mmol CAE/g). […] The peroxyl nitrite ORAC (NORAC) result is expressed as mmol TE/g. Alpha-tocopherol (vitamin E) was used as the calibration standard, and the singlet oxygen absorbance capacity (SOAC) result is expressed as mmole a-tocopherol equivalent (mmol VtE) per gram (Aubry et al. 1989). […] Radical-scavenging activity was measured by the change in absorbance at 517 nm with the DPPH result expressed as mmol TE/g. […] The FRAP result is expressed as mmol TE/g (Ou et al. 2002b). […]

S. pyogenes (ATCC 14289) = experiment: Antimicrobial susceptibility, broth dilution (MIC/MBC); type: cell-based, Streptococcus pyogenes
Procedure: as §1

P. acnes (ATCC 6919) = experiment: as above; type: cell-based, Propionibacterium acnes
Procedure: as §1

[2] = test system: S. epidermidis (ATCC 12228); experiment: as above; type: cell-based, Staphylococcus epidermidis
Procedure: as §1

[3] = Lipophilic oxygen radical absorbance capacity (ORAC-L); conditions: lipid soluble antioxidant capacity; expressed as mmol TE/g; — = No activity detected
From the text: Thus the ORAC method has become a widely used method for assessing antioxidant capacity in biological samples and foods. However, because of its inability to measure both hydrophilic and lipophilic antioxidants, the method has its limitations. An ORAC method for lipophilic antioxidants was further developed and validated using fluorescein as the fluorescent probe (Prior et al. 2003 J. Agric. Food Chem. 51: 3273-3279). […] In the present work, the ORAC value is expressed as the sum of values of both the water-soluble and fat-soluble parts. […] Both hydrophilic and lipophilic oxygen radical absorbance capacity (ORAC) assays were carried out at Brunswick Laboratory (Wareham, Mass.) based on the modified ORACfl method reported by Ou et al. (2001 J. Agric. Food Chem. 49: 4619-4626, 2002 J. Agr. Food Chem. 50: 3122-3128). Trolox, a water-soluble vitamin E analog, was used as the calibration standard. The data are expressed as mmole of Trolox equivalents per gram (mmol TE/g). […] Hydroxyl radical ORAC (HOR-AC) is expressed as mmole caffeic acid equivalent per gram (mmol CAE/g). […] The peroxyl nitrite ORAC (NORAC) result is expressed as mmol TE/g. […] Radical-scavenging activity was measured by the change in absorbance at 517 nm with the DPPH result expressed as mmol TE/g. […] The FRAP result is expressed as mmol TE/g (Ou et al. 2002b).

With COc1cc(O)c(CC=C(C)C)c(O)c1C(=O)/C=C/c1ccc(O)cc1 [Xanthohumol (7), 3′-[3,3-dimethylallyl]-2′,4′,4-trihydroxy-6′-methoxychalcone] the MBC (S. aureus (ATCC 6538P)) was “[100] g/mL”, the MIC (S. aureus (ATCC 6538P); 1 day) was 1 µg/mL (≈ 2.82 µM) and the MIC (S. aureus (ATCC 6538P); Staphylococcus aureus, ATCC6538P) was 1000 µg/mL (≈ 2820 µM). The “quenching activity against ferric ion (FRAP), rank among hop components” value [1] was “highest quenching activity”, the MBC (S. pyogenes (ATCC 14289)) was “[3] g/mL” and the MIC (S. pyogenes (ATCC 14289); 1 day) was 1 µg/mL (≈ 2.82 µM). The MBC (P. acnes (ATCC 6919); Cutibacterium acnes, ATCC6919, read-out: MBC) was 3000 µg/mL (≈ 8460 µM), the MBC (P. acnes (ATCC 6919); lowest concentration required to kill) was “[3] g/mL” and the MIC (P. acnes (ATCC 6919); minimal 100% inhibitory concentration, 2 days) was 3 µg/mL (≈ 8.46 µM). For the same compound, the MBC [2] was “[10] g/mL”, the MIC ([2]; 1 day) was 3 µg/mL (≈ 8.46 µM) and the MIC ([2]; Staphylococcus epidermidis, ATCC12228) was 1000 µg/mL (≈ 2820 µM). For the same compound, the “ORAC-L (Trolox equivalent)” value [3] was 2.1 Trolox equivalent.
